Like-named read-outs stand apart in the source and are kept apart here.
Test system: NL-RLuc virus
Assay: Inhibition of HIV replication: NL-RLuc reporter virus in MT-2 cells, luciferase readout
Assay type: cell-based
Details: MT-2 cells infected with NL-RLuc virus, 5 days of incubation, 10% FBS, at least 2 experiments
From the text: Inhibition of HIV Replication:
A recombinant NL-RLuc proviral clone was constructed in which a section of the nef gene from NL4-3 was replaced with the Renilla Luciferase gene. This virus is fully infectious and can undergo multiple cycles of replication in cell culture. In addition, the luciferous reporter provides a simple and easy method for quantitating the extent of virus growth and consequently, the antiviral activity of test compounds. The plasmid pNLRLuc contains the proviral NL-Rluc DNA cloned into pUC 18 at the PvuII site. The NL-RLuc virus was prepared by transfection of 293T cells with the plasmid pNLRLuc. Transfections were performed using the LipofectAMINE PLUS kit from Invitrogen (Carlsbad, Calif.) according to the manufacturer and the virus generated was titered in MT-2 cells. For susceptibility analyses, the titrated virus was used to infect MT-2 cells in the presence of compound, and after 5 days of incubation, cells were processed and quantitated for virus growth by the amount of expressed luciferase. Assay media was RPMI 1640 supplemented with 10% heat inactivated fetal bovine serum (FBS), 100 units/ml penicillin G/100 units/ml streptomycin, 10 mM HEPES buffer pH 7.55 and 2 mM L-glutamine. The results from at least 2 experiments were used to calculate the EC50 values. Luciferase was quantitated using the Dual Luciferase kit from Promega (Madison, Wis.). Susceptibility of viruses to compounds was determined by incubation in the presence of serial dilutions of the compound. The 50% effective concentration (EC50) was calculated by using the exponential form of the median effect equation where (Fa)=1/[1+(ED50/drug conc.)^m](Johnson V A, Byington R T. Infectivity Assay. In Techniques in HIV Research. ed. Aldovini A, Walker B D. 71-76. New York: Stockton Press. 1990).

[1] = Human immunodeficiency virus 1, MT2, 120 h

Compound | EC50 [1] | EC50 (read-out: EC50)
Cc1cc2nc3cn2c(c1[C@H](OC(C)(C)C)C(=O)O)N1CCC(C)(CCCCCOc2ccccc2CNC3=O)CC1 [Example 1, (2S)-2-(tert-Butoxy)-2-{4,25-dimethyl-10-oxo-19-oxa-1,7,11,30-tetraazapentacyclo[23.2.2.1^6,^9.0^2,^7.0^13,^18]triaconta-2,4,6(30),8,13(18),14,16-heptaen-3-yl}acetic acid] | 71 nM | –
Cc1cc2nc3cn2c(c1[C@H](OC(C)(C)C)C(=O)O)N1CCC(C)(CCCCCCOc2ccc(F)cc2CNC3=O)CC1 [Example 2, (2S)-2-(tert-Butoxy)-2-{15-fluoro-4,26-dimethyl-10-oxo-19-oxa-1,7,11,31-tetraazapentacyclo[24.2.2.1^6,^9.0^2,^7.0^13,^18]hentriaconta-2,4,6(31),8,13(18),14,16-heptaen-3-yl}acetic acid] | 16 nM | –
Cc1cc2nc3cn2c(c1[C@H](OC(C)(C)C)C(=O)O)N1CCC(C)(CC1)OCCCCCOc1ccc(F)cc1CNC3=O [Example 3, (2S)-2-(tert-Butoxy)-2-{15-fluoro-4,26-dimethyl-10-oxo-19,25-dioxa-1,7,11,31-tetraazapentacyclo[24.2.2.1^6,^9.0^2,^7.0^13,^18]hentriaconta-2,4,6(31),8,13(18),14,16-heptaen-3-yl}acetic acid] | 27 nM | –
Cc1cc2nc3cn2c(c1[C@H](OC(C)(C)C)C(=O)O)N1CCC(C)(CC1)OCCCCCOc1ccccc1Cc1nnc-3o1 [Example 4, (2S)-2-(tert-Butoxy)-2-{4,28-dimethyl-21,27,33-trioxa-1,7,11,12,34-pentaazahexacyclo[26.2.2.1^6,^9.1^10,^13.0^2,^7.0^15,^20]tetratriaconta-2,4,6(34),8,10,12,15(20),16,18-nonaen-3-yl}acetic acid] | 10 nM | –
Cc1cc2nc3cn2c(c1[C@H](OC(C)(C)C)C(=O)O)N1CCC(C)(CC1)OCCCCCOc1ccc(F)cc1Cc1nc-3[nH]c1Cl [Example 5] | 7 nM | –
Cc1cc2nc3cn2c(c1[C@H](OC(C)(C)C)C(=O)O)N1CCC(C)(CC1)OC/C=C/C[C@H](C)Oc1cc(F)ccc1-c1cccc-3c1 [Example 6, (2S)-2-(tert-Butoxy)-2-[(22S)-18-fluoro-4,22,28-trimethyl-21,27-dioxa-1,7,34-triazahexacyclo[26.2.2.1^6,^9.1^10,^14.0^2,^7.0^15,^20]tetratriaconta-2,4,6(34),8,10(33),11,13,15(20),16,18,24-undecaen-3-yl]acetic acid] | 5 nM | –
Cc1cc2nc3cn2c(c1[C@H](OC(C)(C)C)C(=O)O)N1CCC(C)(CC1)OCCCC[C@H](C)Oc1cc(F)ccc1-c1cccc-3c1 [Example 7, (2S)-2-(tert-Butoxy)-2-[(22S)-4,17,22,28-tetramethyl-21,27-dioxa-1,7,34-triazahexacyclo[26.2.2.1^6,^9.1^10,^14.0^2,^7.0^15,^20]tetratriaconta-2,4,6(34),8,10(33),11,13,15(20),16,18-decaen-3-yl]acetic acid] | 5 nM | –
Cc1ccc2c(c1)-c1cccc(c1)-c1cn3c(c([C@H](OC(C)(C)C)C(=O)O)c(C)cc3n1)N1CCC(C)(CC1)OCCCC[C@H](C)O2 [Example 8, (2S)-2-(tert-Butoxy)-2-[(22S)-4,17,22,28-tetramethyl-21,27-dioxa-1,7,34-triazahexacyclo[26.2.2.1^6,^9.1^10,^14.0^2,^7.0^15,^20]tetratriaconta-2,4,6(34),8,10(33),11,13,15(20),16,18-decaen-3-yl]acetic acid] | 15 nM | –
Cc1ccc2c(c1)-c1cccc(c1)-c1cn3c(c([C@H](OC(C)(C)C)C(=O)O)c(C)cc3n1)N1CCC(C)(CC1)OC/C=C/C[C@H](C)O2 [Example 9, (2S)-2-(tert-Butoxy)-2-[(22S)-4,17,22,28-tetramethyl-21,27-dioxa-1,7,34-triazahexacyclo[26.2.2.1^6,^9.1^10,^14.0^2,^7.0^15,^20]tetratriaconta-2,4,6(34),8,10(33),11,13,15(20),16,18,24-undecaen-3-yl]acetic acid] | 9 nM | –
Cc1cc2nc3cn2c(c1[C@H](OC(C)(C)C)C(=O)O)N1CCC(C)(CC1)OCCCC[C@H](C)Oc1ccc(F)cc1-c1cccc-3c1 [Example 10, (2S)-2-(tert-Butoxy)-2-[(22S)-17-fluoro-4,22,28-trimethyl-21,27-dioxa-1,7,34-triazahexacyclo[26.2.2.1^6,^9.1^10,^14.0^2,^7.0^15,^20]tetratriaconta-2,4,6(34),8,10(33),11,13,15(20),16,18-decaen-3-yl]acetic acid] | 4 nM | –
Cc1cc2nc3cn2c(c1[C@H](OC(C)(C)C)C(=O)O)N1CCC(C)(CC1)OC/C=C/C[C@H](C)Oc1cc(F)c(F)cc1-c1cccc-3c1 [Example 11, (2S)-2-(tert-Butoxy)-2-[(22S)-17,18-difluoro-4,22,28-trimethyl-21,27-dioxa-1,7,34-triazahexacyclo[26.2.2.1^6,^9.1^10,^14.0^2,^7.0^15,^20]tetratriaconta-2,4,6(34),8,10(33),11,13,15(20),16,18,24-undecaen-3-yl]acetic acid] | 12 nM | –
Cc1cc2nc3cn2c(c1[C@H](OC(C)(C)C)C(=O)O)N1CCC(C)(CC1)OC/C=C\C[C@H](C)Oc1cc(F)c(F)cc1-c1cccc-3c1 [Example 12, (2S)-2-(tert-Butoxy)-2-[(22S)-17,18-difluoro-4,22,28-trimethyl-21,27-dioxa-1,7,34-triazahexacyclo[26.2.2.1^6,^9.1^10,^14.0^2,^7.0^15,^20]tetratriaconta-2,4,6(34),8,10(33),11,13,15(20),16,18,24-undecaen-3-yl]acetic acid] | 3 nM | –
Cc1cc2nc3cn2c(c1[C@H](OC(C)(C)C)C(=O)O)N1CCC(C)(CC1)OCCCC[C@H](C)Oc1cc(F)c(F)cc1-c1cccc-3c1 [Example 13, (2S)-2-(tert-Butoxy)-2-[(22S)-17,18-difluoro-4,22,28-trimethyl-21,27-dioxa-1,7,34-triazahexacyclo[26.2.2.1^6,^9.1^10,^14.0^2,^7.0^15,^20]tetratriaconta-2,4,6(34),8,10(33),11,13,15(20),16,18-decaen-3-yl]acetic acid] | 8 nM | –
Cc1cc2nc3cn2c(c1[C@H](OC(C)(C)C)C(=O)O)N1CCC(C)(CC1)OCC=CC[C@H](C)Oc1cc(F)cc(F)c1-c1cccc-3c1 [Example 14, (2S)-2-(tert-Butoxy)-2-[(22S)-16,18-difluoro-4,22,28-trimethyl-21,27-dioxa-1,7,34-triazahexacyclo[26.2.2.1^6,^9.1^10,^14.0^2,^7.0^15,^20]tetratriaconta-2,4,6(34),8,10(33),11,13,15(20),16,18,24-undecaen-3-yl]acetic acid] | – | 2 nM
Cc1cc2nc3cn2c(c1[C@H](OC(C)(C)C)C(=O)O)N1CCC(C)(CC1)OCCCCC[C@H](C)Oc1cc(F)cc(F)c1-c1cccc-3c1 [Example 16, (2S)-2-(tert-Butoxy)-2-[(22S)-16,18-difluoro-4,22,28-trimethyl-21,27-dioxa-1,7,34-triazahexacyclo[26.2.2.1^6,^9.1^10,^14.0^2,^7.0^15,^20]tetratriaconta-2,4,6(34),8,10(33),11,13,15(20),16,18-decaen-3-yl]acetic acid] | 4 nM | –
Cc1cc2c(cc1C)-c1cccc(c1)-c1cn3c(c([C@H](OC(C)(C)C)C(=O)O)c(C)cc3n1)N1CCC(C)(CC1)OCC=CC[C@H](C)O2 [Example 17, (2S)-2-(tert-Butoxy)-2-[(22S)-4,17,18,22,28-pentamethyl-21,27-dioxa-1,7,34-triazahexacyclo[26.2.2.1^6,^9.1^10,^14.0^2,^7.0^15,^20]tetratriaconta-2,4,6(34),8,10(33),11,13,15(20),16,18,24-undecaen-3-yl]acetic acid] | 6 nM | –
Cc1cc2c(cc1C)-c1cccc(c1)-c1cn3c(c([C@H](OC(C)(C)C)C(=O)O)c(C)cc3n1)N1CCC(C)(CC1)OC/C=C\C[C@H](C)O2 [Example 18, (2S)-2-(tert-Butoxy)-2-[(22S)-4,17,18,22,28-pentamethyl-21,27-dioxa-1,7,34-triazahexacyclo[26.2.2.1^6,^9.1^10,^14.0^2,^7.0^15,^20]tetratriaconta-2,4,6(34),8,10(33),11,13,15(20),16,18,24-undecaen-3-yl]acetic acid] | 8 nM | –
Cc1cc2c(cc1C)-c1cccc(c1)-c1cn3c(c([C@H](OC(C)(C)C)C(=O)O)c(C)cc3n1)N1CCC(C)(CC1)OCCCC[C@H](C)O2 [Example 19, (2S)-2-(tert-Butoxy)-2-[(22S)-4,17,18,22,28-pentamethyl-21,27-dioxa-1,7,34-triazahexacyclo[26.2.2.1^6,^9.1^10,^14.0^2,^7.0^15,^20]tetratriaconta-2,4,6(34),8,10(33),11,13,15(20),16,18-decaen-3-yl]acetic acid] | 15 nM | –
Cc1cc2c(cc1F)-c1cccc(c1)-c1cn3c(c([C@H](OC(C)(C)C)C(=O)O)c(C)cc3n1)N1CCC(C)(CC1)OCCCC[C@H](C)O2 [Example 20, (2S)-2-(tert-Butoxy)-2-[(22S)-17-fluoro-4,18,22,28-tetramethyl-21,27-dioxa-1,7,34-triazahexacyclo[26.2.2.1^6,^9.1^10,^14.0^2,^7.0^15,^20]tetratriaconta-2,4,6(34),8,10(33),11,13,15(20),16,18-decaen-3-yl]acetic acid] | 11 nM | –

Source: patent US9409922B2, “Imidazopyridine macrocycles as inhibitors of human immunodeficiency virus replication” (priority 2014, dated 2016)
